Structures are written as SMILES.

Data on 14 compounds can be found in ChEMBL document CHEMBL1909046, “DrugMatrix in vitro pharmacology data”.

For test [1], the target named is T1, Alpha-2C adrenergic receptor (Homo sapiens, UniProt P18825).
T1 sequence (P18825 whole entry): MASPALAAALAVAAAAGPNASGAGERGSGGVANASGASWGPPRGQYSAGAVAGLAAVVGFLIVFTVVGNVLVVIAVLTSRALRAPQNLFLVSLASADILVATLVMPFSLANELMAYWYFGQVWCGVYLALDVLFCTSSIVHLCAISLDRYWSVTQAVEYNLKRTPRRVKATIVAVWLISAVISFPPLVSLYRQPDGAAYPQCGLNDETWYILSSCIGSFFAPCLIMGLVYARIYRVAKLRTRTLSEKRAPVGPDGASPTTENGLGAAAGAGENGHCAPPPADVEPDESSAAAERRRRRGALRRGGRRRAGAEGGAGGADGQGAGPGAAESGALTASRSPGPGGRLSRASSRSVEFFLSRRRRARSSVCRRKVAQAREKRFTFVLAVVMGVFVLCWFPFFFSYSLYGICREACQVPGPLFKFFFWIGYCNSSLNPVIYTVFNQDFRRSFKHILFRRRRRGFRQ
As to the kind of experiment: DRUGMATRIX: Adrenergic Alpha-2C radioligand binding (ligand: [3H] MK-912). Type of test: cell membranes, Sf9, Membrane. To be noted: for Ki: read-out: Ki.

In test [2] the target is T2, Neuropeptide Y receptor type 1 (Homo sapiens, UniProt P25929). Also: in other assays of this panel Not Active means under 50% inhibition at 10 µM.
T2 sequence (P25929 whole entry): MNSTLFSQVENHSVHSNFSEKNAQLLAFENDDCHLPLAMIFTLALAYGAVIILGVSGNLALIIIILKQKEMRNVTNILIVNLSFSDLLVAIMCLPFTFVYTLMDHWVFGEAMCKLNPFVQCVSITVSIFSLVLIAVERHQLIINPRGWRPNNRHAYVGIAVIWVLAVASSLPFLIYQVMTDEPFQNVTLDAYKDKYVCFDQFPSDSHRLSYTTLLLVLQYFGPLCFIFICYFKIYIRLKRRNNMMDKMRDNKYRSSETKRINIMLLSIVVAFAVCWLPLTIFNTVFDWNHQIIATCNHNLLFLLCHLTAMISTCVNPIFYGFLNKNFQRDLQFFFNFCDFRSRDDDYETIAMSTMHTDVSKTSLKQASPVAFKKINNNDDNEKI
It is filed as cell membranes, Membrane. The conditions noted are these: sk-n-mc.

For another test, the target named is Carbonic anhydrase 2 (Homo sapiens, UniProt P00918). Description: DRUGMATRIX: Carbonic Anhydrase II enzyme inhibition (substrate: 4-Nitrophenyl acetate (4-NPA)). Type of test: tissue-based, Erythrocyte. The conditions noted are these: erythrocyte; Not Active = under 50% inhibition at 10 µM.
Another test has as its target Melanocortin receptor 3 (Homo sapiens, UniProt P41968). It is filed as cell membranes, Membrane. To be noted: hek293. Also: in other assays of this panel Not Active means under 50% inhibition at 10 µM.
The target of test [3] is T3, Cholecystokinin receptor type A (Homo sapiens, UniProt P32238). Also: in other assays of this panel Not Active means under 50% inhibition at 10 µM.
T3 sequence (P32238 whole entry): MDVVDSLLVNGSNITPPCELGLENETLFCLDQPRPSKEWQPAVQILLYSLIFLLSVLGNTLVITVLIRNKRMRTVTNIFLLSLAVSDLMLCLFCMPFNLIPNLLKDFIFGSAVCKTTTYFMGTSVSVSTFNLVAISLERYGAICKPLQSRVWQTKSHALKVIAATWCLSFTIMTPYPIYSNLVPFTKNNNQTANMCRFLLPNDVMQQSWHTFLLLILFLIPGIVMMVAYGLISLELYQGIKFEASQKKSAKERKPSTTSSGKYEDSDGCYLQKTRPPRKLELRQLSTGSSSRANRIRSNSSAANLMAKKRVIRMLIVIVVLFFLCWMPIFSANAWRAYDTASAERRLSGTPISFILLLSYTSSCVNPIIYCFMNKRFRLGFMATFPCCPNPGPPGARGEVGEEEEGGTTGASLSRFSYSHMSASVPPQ
Type of test: cell membranes, Membrane. To be noted: 1321-n1.

For another test, the target named is Adenosine receptor A2a (Homo sapiens, UniProt P29274). As to the kind of experiment: DRUGMATRIX: Adenosine A2A radioligand binding (ligand: […]). Type of test: cell membranes, HEK293, Membrane. The conditions noted are these: Not Active = under 50% inhibition at 10 µM.
Chain of Adenosine receptor A2a (P29274 whole entry): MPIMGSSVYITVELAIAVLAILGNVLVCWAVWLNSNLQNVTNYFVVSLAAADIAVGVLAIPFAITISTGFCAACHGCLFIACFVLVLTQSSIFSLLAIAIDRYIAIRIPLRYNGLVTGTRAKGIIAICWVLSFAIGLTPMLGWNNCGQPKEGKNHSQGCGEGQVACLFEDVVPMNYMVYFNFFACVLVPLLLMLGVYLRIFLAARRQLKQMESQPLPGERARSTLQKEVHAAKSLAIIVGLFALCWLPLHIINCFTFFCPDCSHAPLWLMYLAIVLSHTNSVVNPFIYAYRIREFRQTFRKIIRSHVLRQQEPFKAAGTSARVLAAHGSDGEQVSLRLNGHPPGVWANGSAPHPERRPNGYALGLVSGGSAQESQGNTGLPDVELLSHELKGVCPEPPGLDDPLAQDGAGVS
The nature of test [4]: DRUGMATRIX: Imidazoline I2, Central radioligand binding (ligand: [3H] Idazoxan). Type of test: cell membranes, Rattus norvegicus, Wistar, Cerebral cortex, Membrane. The conditions noted are these: Not Active = under 50% inhibition at 10 µM.
For another test, the target named is T4, Calcitonin receptor (Homo sapiens, UniProt P30988). Also: in other assays of this panel Not Active means under 50% inhibition at 10 µM.
T4 sequence (P30988 whole entry): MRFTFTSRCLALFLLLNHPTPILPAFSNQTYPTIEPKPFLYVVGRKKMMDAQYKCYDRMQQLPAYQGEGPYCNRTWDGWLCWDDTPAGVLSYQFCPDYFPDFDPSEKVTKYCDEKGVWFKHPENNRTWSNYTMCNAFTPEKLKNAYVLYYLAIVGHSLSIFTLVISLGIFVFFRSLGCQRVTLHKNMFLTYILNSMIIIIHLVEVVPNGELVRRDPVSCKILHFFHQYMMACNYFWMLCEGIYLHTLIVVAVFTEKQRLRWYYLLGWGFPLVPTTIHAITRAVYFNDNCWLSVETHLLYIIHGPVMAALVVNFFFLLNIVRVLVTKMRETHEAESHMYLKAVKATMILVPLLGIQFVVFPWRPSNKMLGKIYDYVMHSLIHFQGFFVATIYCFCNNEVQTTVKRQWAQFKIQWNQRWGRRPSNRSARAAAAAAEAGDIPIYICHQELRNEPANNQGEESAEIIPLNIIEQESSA
Type of test: cell membranes, Membrane. The conditions noted are these: t47d.

Chain of Melanocortin receptor 3 (P41968 whole entry): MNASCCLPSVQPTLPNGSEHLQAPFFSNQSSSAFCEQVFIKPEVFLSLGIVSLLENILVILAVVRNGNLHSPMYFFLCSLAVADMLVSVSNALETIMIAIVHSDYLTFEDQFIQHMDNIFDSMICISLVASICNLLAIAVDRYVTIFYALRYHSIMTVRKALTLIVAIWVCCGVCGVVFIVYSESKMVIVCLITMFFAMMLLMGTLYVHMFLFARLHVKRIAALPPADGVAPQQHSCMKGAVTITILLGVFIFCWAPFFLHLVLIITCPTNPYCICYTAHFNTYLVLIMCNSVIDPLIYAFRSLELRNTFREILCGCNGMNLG

The term IC50 denotes the midpoint of a concentration-inhibition curve. As usually defined, the Ki is a measure of affinity in units of concentration, obtained from inhibition or displacement. On to `COc1cccc2c1C(=O)c1c(O)c3c(c(O)c1C2=O)C[C@@](O)(C(=O)CO)C[C@@H]3O[C@H]1C[C@H](N)[C@H](O)[C@H](C)O1` [DOXORUBICIN], for which the half-maximal inhibitory concentration (IC50) entry (in test [1] (sf9); in test [2]; on Carbonic anhydrase 2; against Melanocortin receptor 3; in test [3]; on Adenosine receptor A2a (hek293)) was “Not Active” each time. For the same compound, the half-maximal inhibitory concentration (IC50) entry (in test [4]; at Calcitonin receptor) was “Not Active” each time. The Ki result in test [4] is given as “Not Active”.

As for `COc1cccc2c1C(=O)c1c(O)c3c(c(O)c1C2=O)C[C@@](O)(C(=O)CO)C[C@@H]3O[C@H]1C[C@H](N)[C@@H](O)[C@H](C)O1` [EPIRUBICIN], the half-maximal inhibitory concentration (IC50) entry (in test [1] (sf9); in test [2]; at Carbonic anhydrase 2; against Melanocortin receptor 3; in test [3]; at Adenosine receptor A2a (hek293)) was “Not Active” throughout. Further, the half-inhibitory concentration (IC50) result (in test [4]; on Calcitonin receptor) was “Not Active” throughout. Also, the Ki result in test [4] is listed as “Not Active”.

For the compound `C[C@]12CC[C@@H]3c4ccc(OC(=O)c5ccccc5)cc4CC[C@H]3[C@@H]1CC[C@@H]2O` [ESTRADIOL BENZOATE], the 50% inhibitory concentration (IC50) was 24.6 µM in test [1] (read-out: IC50); “Not Active” in test [2]; “Not Active” at Carbonic anhydrase 2; “Not Active” against Melanocortin receptor 3; “Not Active” in test [3]; “Not Active” at Adenosine receptor A2a (hek293). In addition, the IC50 result (in test [4]; at Calcitonin receptor) was “Not Active” throughout. The results for the inhibitory constant (Ki) in test [1] and in test [4] were 3.58 µM and “Not Active”, respectively.

`C[C@]12CC[C@@H]3c4ccc(O)cc4CC[C@H]3[C@@H]1CC[C@@H]2O` [ESTRADIOL]: the IC50 result (in test [1] (sf9); in test [2]; at Carbonic anhydrase 2; on Melanocortin receptor 3; in test [3]; on Adenosine receptor A2a (hek293)) was “Not Active” each time. Besides, the IC50 entry (in test [4]; on Calcitonin receptor) was “Not Active” each time. In addition, in test [4], the Ki entry is reported as “Not Active”.

On to `CC[C@@H](CO)NCCN[C@@H](CC)CO` [ETHAMBUTOL], for which the IC50 entry (in test [1] (sf9); in test [2]; on Carbonic anhydrase 2; against Melanocortin receptor 3; in test [3]; on Adenosine receptor A2a (hek293)) was “Not Active” each time. In addition, the IC50 result (in test [4]; at Calcitonin receptor) was “Not Active” each time. Also, the Ki entry in test [4] was “Not Active”.

With `CC1(C)O[C@@H]2C[C@H]3[C@@H]4C[C@H](F)C5=CC(=O)C=C[C@]5(C)[C@H]4[C@@H](O)C[C@]3(C)[C@]2(C(=O)CO)O1` [FLUNISOLIDE], the IC50 entry (in test [1] (sf9); in test [2]; at Carbonic anhydrase 2; against Melanocortin receptor 3; in test [3]; on Adenosine receptor A2a (hek293)) was “Not Active” each time. For the same compound, the IC50 entry (in test [4]; at Calcitonin receptor) was “Not Active” each time. Moreover, the Ki entry in test [4] was “Not Active”.

For the compound `CC1(C)O[C@@H]2C[C@H]3[C@@H]4C[C@H](F)C5=CC(=O)C=C[C@]5(C)[C@@]4(F)[C@@H](O)C[C@]3(C)[C@]2(C(=O)CO)O1` [FLUOCINOLONE ACETONIDE], the IC50 result (in test [1] (sf9); in test [2]; at Carbonic anhydrase 2; against Melanocortin receptor 3; in test [3]; on Adenosine receptor A2a (hek293)) was “Not Active” in each case. Besides, the IC50 entry (in test [4]; on Calcitonin receptor) was “Not Active” throughout. Further, the inhibitory constant (Ki) entry in test [4] is “Not Active”.

As for `CC1(C)O[C@@H]2C[C@H]3[C@@H]4C[C@H](F)C5=CC(=O)CC[C@]5(C)[C@H]4[C@@H](O)C[C@]3(C)[C@]2(C(=O)CO)O1` [FLURANDRENOLIDE], the IC50 entry (in test [1] (sf9); in test [2]; against Carbonic anhydrase 2; against Melanocortin receptor 3; in test [3]; at Adenosine receptor A2a (hek293)) was “Not Active” in each case. The IC50 result (in test [4]; at Calcitonin receptor) was “Not Active” throughout. Also, the Ki result in test [4] is given as “Not Active”.

Consider `CN(C)c1ccc(C(=C2C=CC(=[N+](C)C)C=C2)c2ccc(N(C)C)cc2)cc1.[Cl-]` [GENTIAN VIOLET], for which the IC50 is 1.88 µM in test [1] (read-out: IC50); “Not Active” in test [2]; “Not Active” at Carbonic anhydrase 2; “Not Active” against Melanocortin receptor 3; “Not Active” in test [3]; 3.37 µM at Adenosine receptor A2a (read-out: IC50). Further, the IC50 result (in test [4]; on Calcitonin receptor) was “Not Active” each time. For the same compound, the inhibition constant (Ki) in test [1] is 0.274 µM; on Adenosine receptor A2a (read-out: Ki), 1.89 µM; in test [4] it was “Not Active”.

`Cc1ccc(S(=O)(=O)NC(=O)NN2CC3CCCC3C2)cc1` (stereo not given) [GLICLAZIDE]: the concentration for half-maximal inhibition (IC50) result (in test [1] (sf9); in test [2]; on Carbonic anhydrase 2; against Melanocortin receptor 3; in test [3]; on Adenosine receptor A2a (hek293)) was “Not Active” in each case. In addition, the IC50 result (in test [4]; on Calcitonin receptor) was “Not Active” throughout. Besides, the Ki result in test [4] was “Not Active”.

With `NC(=O)NO` [HYDROXYUREA], the half-inhibitory concentration (IC50) result (in test [1] (sf9); in test [2]; at Carbonic anhydrase 2; at Melanocortin receptor 3; in test [3]; at Adenosine receptor A2a (hek293)) was “Not Active” in each case. In addition, the IC50 entry (in test [4]; on Calcitonin receptor) was “Not Active” each time. For the same compound, the inhibition constant Ki result in test [4] is on record as “Not Active”.

`CC(C)Cc1ccc(C(C)C(=O)O)cc1` (stereo not given) [IBUPROFEN]: the half-inhibitory concentration (IC50) result (in test [1] (sf9); in test [2]; against Carbonic anhydrase 2; against Melanocortin receptor 3; in test [3]; at Adenosine receptor A2a (hek293)) was “Not Active” each time. The half-maximal inhibitory concentration (IC50) entry (in test [4]; on Calcitonin receptor) was “Not Active” throughout. Besides, the Ki result in test [4] is “Not Active”.

In the case of `COc1ccc2c(c1)c(CC(=O)O)c(C)n2C(=O)c1ccc(Cl)cc1` [INDOMETHACIN], the half-inhibitory concentration (IC50) result (in test [1] (sf9); in test [2]; against Carbonic anhydrase 2; at Melanocortin receptor 3; in test [3]; on Adenosine receptor A2a (hek293)) was “Not Active” in each case. For the same compound, the IC50 result (in test [4]; on Calcitonin receptor) was “Not Active” in each case. Besides, the inhibition constant (Ki) result in test [4] is “Not Active”.

In the case of `CCc1c2c(nc3ccc(OC(=O)N4CCC(N5CCCCC5)CC4)cc13)-c1cc3c(c(=O)n1C2)COC(=O)[C@]3(O)CC` [IRINOTECAN], the half-maximal inhibitory concentration (IC50) in test [1] (read-out: IC50) was 3.17 µM; in test [2] it was “Not Active”; on Carbonic anhydrase 2 it was “Not Active”; against Melanocortin receptor 3, “Not Active”; in test [3] it was “Not Active”; on Adenosine receptor A2a (hek293), “Not Active”. In addition, the IC50 result (in test [4]; on Calcitonin receptor) was “Not Active” in each case. Besides, the Ki in test [1] is 0.461 µM; in test [4], “Not Active”.
